Measurements published in ChEMBL document CHEMBL3804786, “Novel 1,3-thiazolidin-4-one derivatives as promising anti-Candida agents endowed with anti-oxidant and chelating properties” (Eur J Med Chem, 2016).
Values after ≈ are worked out from the molar mass of the structure shown.

Legend:
[1] = Cytotoxicity against human Hep2 cells assessed as cell survival at 50 ug/ml after 24 hrs by trypan blue exclusion assay; format: cell-based, HEp-2; conditions: read-out: Survival
Klebsiella oxytoca = assay: Antibacterial activity against Klebsiella oxytoca clinical isolate after 18 to 22 hrs by broth microdilution method; format: functional
Staphylococcus warneri = assay: Antibacterial activity against Staphylococcus warneri clinical isolate after 18 to 22 hrs by broth microdilution method; format: functional
[2] = Cytotoxicity against human Hep2 cells assessed as cell survival at 5 ug/ml after 24 hrs by trypan blue exclusion assay; format: cell-based, HEp-2; conditions: read-out: Survival
Candida albicans = assay: Antifungal activity against Candida albicans clinical isolate after 24 hrs by broth microdilution method; format: functional
Staphylococcus aureus = assay: Antibacterial activity against Staphylococcus aureus clinical isolate after 18 to 22 hrs by broth microdilution method; format: functional
[3] = Cytotoxicity against human Hep2 cells assessed as cell survival at 0.5 ug/ml after 24 hrs by trypan blue exclusion assay; format: cell-based, HEp-2; conditions: read-out: Survival
[4] = Antioxidant activity assessed as ABTS radical scavenging activity after 30 mins under dark conditions; format: physicochemical
Nakaseomyces glabratus = assay: Antifungal activity against Candida glabrata clinical isolate after 24 hrs by broth microdilution method; format: functional
Enterobacter sp. = assay: Antibacterial activity against Enterobacter spp. clinical isolate after 18 to 22 hrs by broth microdilution method; format: functional
[5] = Antioxidant activity assessed as DPPH radical scavenging activity after 30 mins under dark conditions; format: physicochemical
Enterococcus faecalis = assay: Antibacterial activity against Streptococcus faecalis clinical isolate after 18 to 22 hrs by broth microdilution method; format: functional
[6] = Antioxidant activity of the compound after 90 mins by phosphomolybdenum assay; format: physicochemical
Escherichia coli = assay: Antibacterial activity against Escherichia coli after clinical isolate 18 to 22 hrs by broth microdilution method; format: functional
[7] = Antioxidant activity of the compound after 30 mins by CUPRAC method; format: physicochemical
Pichia kudriavzevii = assay: Antifungal activity against Candida krusei clinical isolate after 24 hrs by broth microdilution method; format: functional
Candida tropicalis = assay: Antifungal activity against Candida tropicalis clinical isolate after 24 hrs by broth microdilution method; format: functional
Proteus mirabilis = assay: Antibacterial activity against Proteus mirabilis clinical isolate after 18 to 22 hrs by broth microdilution method; format: functional
Candida parapsilosis = assay: Antifungal activity against Candida parapsilosis clinical isolate after 24 hrs by broth microdilution method; format: functional; conditions: Lodderomyces parapsilosis
[8] = Cytotoxicity against human Hep2 cells assessed as reduction in cell viability after 24 hrs by trypan blue exclusion assay; format: cell-based, HEp-2
[9] = tested on: Streptococcus sp. (viridans group); assay: Antibacterial activity against Streptococcus alpha-hemolyticus clinical isolate after 18 to 22 hrs by broth microdilution method
[10] = Antioxidant activity of the compound after 30 mins by FRAP assay; format: physicochemical
[Candida] sake = Antifungal activity against Candida sake clinical isolate after 24 hrs by broth microdilution method; format: functional; conditions: Fermentozyma sake
[11] = Cytotoxicity against human Hep2 cells assessed as cell survival at 10 ug/ml after 24 hrs by trypan blue exclusion assay; format: cell-based, HEp-2; conditions: read-out: Survival
[12] = Cytotoxicity against human Hep2 cells assessed as cell survival at 0.05 ug/ml after 24 hrs by trypan blue exclusion assay; format: cell-based, HEp-2; conditions: read-out: Survival
[13] = Metal chelating activity of the compound assessed as ferrous ion complex formation after 10 mins; format: physicochemical

MIC (Klebsiella oxytoca) [µg/mL]	MIC (Staphylococcus warneri) [µg/mL]	MIC (Candida albicans) [µg/mL]	MIC (Staphylococcus aureus) [µg/mL]	MIC (Nakaseomyces glabratus) [µg/mL]	MIC (Enterobacter sp.) [µg/mL]	MIC (Enterococcus faecalis) [µg/mL]	MIC (Escherichia coli) [µg/mL]	MIC (Pichia kudriavzevii) [µg/mL]	MIC (Candida tropicalis) [µg/mL]	MIC (Proteus mirabilis) [µg/mL]	MIC (Candida parapsilosis) [µg/mL]	MIC ([Candida] sake) [µg/mL]	SMILES	IC50 [4] [µM]	IC50 [5] [µM]	EC50 [6] [µM]	EC50 [7] [µM]	MIC [9] [µg/mL]	EC50 [10] [µM]	IC50 [13] [µM]	also measured
> 256	> 256	4 (≈ 10.8 µM)	> 256	2 (≈ 5.41 µM)	> 256	> 256	> 256	8 (≈ 21.7 µM)	8 (≈ 21.7 µM)	> 256	8 (≈ 21.7 µM)	4 (≈ 10.8 µM)	C/C(=N\N=C1/SCC(=O)N1Cc1cccc([N+](=O)[O-])c1)c1ccccn1	–	–	–	–	> 256	–	–	–
> 256	> 256	2 (≈ 6.53 µM)	> 256	4 (≈ 13.1 µM)	> 256	> 256	> 256	2 (≈ 6.53 µM)	8 (≈ 26.1 µM)	> 256	16 (≈ 52.2 µM)	4 (≈ 13.1 µM)	CC(C)=N/N=C1\SCC(=O)N1Cc1ccccc1[N+](=O)[O-]	–	–	–	–	> 256	–	–	–
> 256	> 256	4 (≈ 14.5 µM)	> 256	1 (≈ 3.62 µM)	> 256	> 256	> 256	2 (≈ 7.24 µM)	32 (≈ 116 µM)	> 256	2 (≈ 7.24 µM)	4 (≈ 14.5 µM)	CC(C)=N/N=C1\SCC(=O)N1Cc1ccc(N)cc1	2040	> 5000	1200	1770	> 256	2760	> 5000	–
> 256	> 256	8 (≈ 22.3 µM)	> 256	4 (≈ 11.1 µM)	> 256	> 256	> 256	8 (≈ 22.3 µM)	8 (≈ 22.3 µM)	> 256	4 (≈ 11.1 µM)	8 (≈ 22.3 µM)	C/C(=N/N=C1\SCC(=O)N1Cc1ccc(Cl)cc1)c1ccccn1	–	–	–	–	> 256	–	–	–
> 256	> 256	4 (≈ 14.3 µM)	> 256	4 (≈ 14.3 µM)	> 256	> 256	> 256	4 (≈ 14.3 µM)	4 (≈ 14.3 µM)	> 256	2 (≈ 7.16 µM)	8 (≈ 28.6 µM)	CC(C)=N/N=C1\SCC(=O)N1Cc1cccc(F)c1	–	–	–	–	> 256	–	–	–

More lines, now with the values behind:

SMILES	MIC (Klebsiella oxytoca) [µg/mL]	MIC (Staphylococcus warneri) [µg/mL]	MIC (Candida albicans) [µg/mL]	MIC (Staphylococcus aureus) [µg/mL]	MIC (Nakaseomyces glabratus) [µg/mL]	MIC (Enterobacter sp.) [µg/mL]	MIC (Enterococcus faecalis) [µg/mL]	MIC (Escherichia coli) [µg/mL]	MIC (Pichia kudriavzevii) [µg/mL]	MIC (Candida tropicalis) [µg/mL]	MIC (Proteus mirabilis) [µg/mL]	MIC (Candida parapsilosis) [µg/mL]	MIC ([Candida] sake) [µg/mL]	IC50 [4] [µM]	IC50 [5] [µM]	EC50 [6] [µM]	EC50 [7] [µM]	MIC [9] [µg/mL]	EC50 [10] [µM]	IC50 [13] [µM]	also measured
C/C(=N\N=C1/SCC(=O)N1Cc1ccccc1F)c1cccs1	> 256	> 256	2 (≈ 5.76 µM)	> 256	4 (≈ 11.5 µM)	> 256	> 256	> 256	4 (≈ 11.5 µM)	2 (≈ 5.76 µM)	> 256	4 (≈ 11.5 µM)	2 (≈ 5.76 µM)	15700	> 5000	1260	2400	> 256	2130	3840	viability at 24 h, 50 ug/ml [1]: 0%; viability at 24 h, 5 ug/ml [2]: 62%; viability at 24 h, 0.5 ug/ml [3]: 80%; CC50 at 24 h [8]: 15 µg/mL (≈ 43.2 µM); viability at 24 h, 10 ug/ml [11]: 41%; viability at 24 h, 0.05 ug/ml [12]: 91%
O=C1CS/C(=N\N=C2CCCC2)N1Cc1ccccc1F	> 256	> 256	2 (≈ 6.55 µM)	> 256	2 (≈ 6.55 µM)	> 256	> 256	> 256	8 (≈ 26.2 µM)	2 (≈ 6.55 µM)	> 256	2 (≈ 6.55 µM)	2 (≈ 6.55 µM)	12400	> 5000	700	2370	> 256	5630	> 5000	viability at 24 h, 50 ug/ml [1]: 0%; viability at 24 h, 5 ug/ml [2]: 52%; viability at 24 h, 0.5 ug/ml [3]: 69%; CC50 at 24 h [8]: 11 µg/mL (≈ 36 µM); viability at 24 h, 10 ug/ml [11]: 37%; viability at 24 h, 0.05 ug/ml [12]: 82%
Clc1ccccc1C(c1ccccc1)(c1ccccc1)n1ccnc1 [CLOTRIMAZOLE]	–	–	2 (≈ 5.8 µM)	–	2 (≈ 5.8 µM)	–	–	–	2 (≈ 5.8 µM)	2 (≈ 5.8 µM)	–	2 (≈ 5.8 µM)	2 (≈ 5.8 µM)	–	–	–	–	–	–	–	viability at 24 h, 50 ug/ml [1]: 10.2%; CC50 at 24 h [8]: 18 µg/mL (≈ 52.2 µM)
O=C(O)CN(CCN(CC(=O)O)CC(=O)O)CC(=O)O [EDETIC ACID]	–	–	–	–	–	–	–	–	–	–	–	–	–	–	–	–	–	–	–	20	–
C/C(=N/N=C1\SCC(=O)N1Cc1ccc(F)cc1)c1cccs1	> 256	> 256	2 (≈ 5.76 µM)	> 256	2 (≈ 5.76 µM)	> 256	> 256	> 256	2 (≈ 5.76 µM)	2 (≈ 5.76 µM)	> 256	4 (≈ 11.5 µM)	8 (≈ 23 µM)	21500	> 5000	1370	1850	> 256	2020	3900	viability at 24 h, 50 ug/ml [1]: 0%; viability at 24 h, 5 ug/ml [2]: 68%; viability at 24 h, 0.5 ug/ml [3]: 76%; CC50 at 24 h [8]: 15 µg/mL (≈ 43.2 µM); viability at 24 h, 10 ug/ml [11]: 52%; viability at 24 h, 0.05 ug/ml [12]: 83%
C/C(=N/N=C1\SCC(=O)N1Cc1ccc(F)cc1)c1ccccn1	> 256	> 256	2 (≈ 5.84 µM)	> 256	2 (≈ 5.84 µM)	> 256	> 256	> 256	8 (≈ 23.4 µM)	2 (≈ 5.84 µM)	> 256	4 (≈ 11.7 µM)	2 (≈ 5.84 µM)	16100	> 5000	1160	1750	> 256	6220	3670	viability at 24 h, 50 ug/ml [1]: 0%; viability at 24 h, 5 ug/ml [2]: 70%; viability at 24 h, 0.5 ug/ml [3]: 83%; CC50 at 24 h [8]: 16 µg/mL (≈ 46.7 µM); viability at 24 h, 10 ug/ml [11]: 42%; viability at 24 h, 0.05 ug/ml [12]: 91%
C/C(=N\N=C1/SCC(=O)N1Cc1cccc(Cl)c1)c1cccs1	> 256	> 256	2 (≈ 5.5 µM)	> 256	2 (≈ 5.5 µM)	> 256	> 256	> 256	2 (≈ 5.5 µM)	2 (≈ 5.5 µM)	> 256	2 (≈ 5.5 µM)	2 (≈ 5.5 µM)	20300	> 5000	1160	1590	> 256	2320	1640	viability at 24 h, 50 ug/ml [1]: 0%; viability at 24 h, 5 ug/ml [2]: 82%; viability at 24 h, 0.5 ug/ml [3]: 89%; CC50 at 24 h [8]: 21 µg/mL (≈ 57.7 µM); viability at 24 h, 10 ug/ml [11]: 63%; viability at 24 h, 0.05 ug/ml [12]: 94%
O=C1CS/C(=N\N=C2CCCC2)N1Cc1ccc(F)cc1	> 256	> 256	8 (≈ 26.2 µM)	> 256	4 (≈ 13.1 µM)	> 256	> 256	> 256	8 (≈ 26.2 µM)	16 (≈ 52.4 µM)	> 256	2 (≈ 6.55 µM)	8 (≈ 26.2 µM)	–	–	–	–	> 256	–	–	–
Cc1c(C)c2c(c(C)c1O)CCC(C)(C(=O)O)O2 (stereo not drawn) [TROLOX]	–	–	–	–	–	–	–	–	–	–	–	–	–	660	400	1130	240	–	160	–	–
O=C1CS/C(=N\N=C2CCCC2)N1Cc1cccc([N+](=O)[O-])c1	> 256	> 256	4 (≈ 12 µM)	> 256	16 (≈ 48.1 µM)	> 256	> 256	> 256	8 (≈ 24.1 µM)	4 (≈ 12 µM)	> 256	4 (≈ 12 µM)	2 (≈ 6.02 µM)	–	–	–	–	> 256	–	–	–
